Laboratory results taken from ChEMBL document CHEMBL1201862, “PubChem BioAssay data set” (2004).
Active and inactive are the calls of the source.

Columns and labels:
[1] = molecular target: Eukaryotic translation initiation factor 4E (Mus musculus, UniProt P63073); assay: eIF4E–eIF4G protein interaction inhibitors, dose response, biochemical, TR-FRET (AID 855); assay type: functional;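 further: potency for disrupting eIF4E binding to eIF4GI seen as loss of FRET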
[2] = molecular target: T1, Runt-related transcription factor 1/Core-binding factor subunit beta (Homo sapiens, UniProt Q01196+Q13951); assay: inhibitors of RUNX1 Runt–CBFb-SMMHC binding, primary screen, biochemical, FRET, Cerulean-Runt, Venus-CBFb-SMMHC, uHTS (AID 1434); assay type: protein assay;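 further: partner is the CBFb-SMMHC leukemia fusion protein rather than wild-type CBFb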
[3] = THP-1 cell cytotoxicity, dose response, cytotoxicity control for Vif-APOBEC3G degradation inhibitor project, THP-1 cells (AID 1117359); assay type: functional; details: Human immunodeficiency virus 1, THP-1
[4] = molecular target: Induced myeloid leukemia cell differentiation protein Mcl-1 (Homo sapiens, UniProt Q07820); assay type: functional
[5] = molecular target: T2, Polyadenylate-binding protein 1 (Homo sapiens, UniProt P11940); assay: PABP1 MLLE–PAM2 interaction inhibitors, dose response, miRNA deadenylation inhibitor project, biochemical, fluorescence polarization, Cy5-PAM2 peptide, secondary (AID 602260); assay type: functional; details: read-out: IC50_Mean
[6] = molecular target: Aspartyl aminopeptidase (Plasmodium falciparum 3D7, UniProt Q8I2J3)
[7] = molecular target: Glucose-6-phosphate 1-dehydrogenase (Homo sapiens, UniProt P11413); assay: human G6PD enzyme inhibitors, dose response, selectivity assay for P. falciparum G6PD inhibitor project, biochemical, fluorescence (AID 504792); assay type: functional
[8] = molecular target: Procathepsin L (Homo sapiens, UniProt P07711)
[9] = molecular target: T1, Runt-related transcription factor 1/Core-binding factor subunit beta; assay: Confirmation of compounds inhibiting the binding between the RUNX1 Runt domain and CBFb-SMMHC via a time resolved fluorescence resonance energy transfer (TR-FRET) assay. [Related pubchem assays (depositor defined):AID1434, AID1438, AID1496, AID1560, AID1645]; assay type: protein assay
[10] = molecular target: T1, Runt-related transcription factor 1/Core-binding factor subunit beta; assay: Confirmation of compounds inhibiting the binding between the RUNX1 Runt domain and CBFb-SMMHC via a fluorescence resonance energy transfer (FRET) assay. [Related pubchem assays (depositor defined):AID1434, AID1438, AID1496, AID1550, AID1645]; assay type: protein assay
[11] = molecular target: T2, Polyadenylate-binding protein 1; assay: PABP1 MLLE–PAM2 binding inhibitor potency, dose response, biochemical, fluorescence polarization, FITC-PAM2 peptide (AID 602259); assay type: functional; details: read-out: IC50_Mean
[12] = molecular target: T3, Mannose-6-phosphate isomerase (Homo sapiens, UniProt P34949); assay: human PMI inhibitors, high substrate, primary screen, biochemical, fluorescence intensity, high mannose 6-phosphate (AID 1220)
T3 sequence (P34949 whole entry): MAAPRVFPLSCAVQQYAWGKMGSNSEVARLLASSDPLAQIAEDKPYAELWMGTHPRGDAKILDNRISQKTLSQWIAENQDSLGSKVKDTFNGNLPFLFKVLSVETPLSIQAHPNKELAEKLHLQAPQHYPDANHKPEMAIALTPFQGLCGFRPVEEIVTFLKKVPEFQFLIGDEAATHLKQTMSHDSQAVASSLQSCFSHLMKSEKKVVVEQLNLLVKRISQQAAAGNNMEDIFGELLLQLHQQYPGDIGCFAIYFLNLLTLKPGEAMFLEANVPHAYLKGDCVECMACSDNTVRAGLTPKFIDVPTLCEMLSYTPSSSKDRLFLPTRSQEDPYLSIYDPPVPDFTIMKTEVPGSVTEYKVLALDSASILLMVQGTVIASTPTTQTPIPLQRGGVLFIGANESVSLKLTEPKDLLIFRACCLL

[13] = molecular target: T4, Cannabinoid receptor 1 (Homo sapiens, UniProt P21554); assay: SAR analysis of antagonists of the Cannabinoid Receptor 1 using an Image-Based Assay - Set 4. [Related pubchem assays (depositor defined):AID2013, AID2026]; assay type: functional
[14] = molecular target: T5, Cannabinoid receptor 2 (Homo sapiens, UniProt P34972); assay: SAR analysis of agonists of the Cannabinoid Receptor 2 using an Image-Based Assay - Set 3. [Related pubchem assays (depositor defined):AID2013, AID2026]; assay type: functional
[15] = molecular target: T5, Cannabinoid receptor 2; assay: SAR analysis of antagonists of the Cannabinoid Receptor 2 using an Image-Based Assay - Set 3. [Related pubchem assays (depositor defined):AID2013, AID2026]; assay type: functional
[16] = molecular target: T4, Cannabinoid receptor 1; assay: SAR analysis of agonists of the Cannabinoid Receptor 1 using an Image-Based Assay - Set 4. [Related pubchem assays (depositor defined):AID2013, AID2026]; assay type: functional
[17] = molecular target: G-protein coupled receptor 55 (Homo sapiens, UniProt Q9Y2T6); assay: SAR Analysis of Selective Antagonists of GPR55 using an Image-Based Assay - Set 4. [Related pubchem assays (depositor defined):AID2013, AID2026]; assay type: functional;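 further: antagonism of response to 5 µM lysophosphatidylinositol agonist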
[18] = molecular target: T6, G-protein coupled receptor 35 (Homo sapiens, UniProt Q9HC97); assay: SAR analysis of Agonists of the GPR35 Receptor using an Image-Based Assay - Set 4. [Related pubchem assays (depositor defined):AID2013, AID2026]; assay type: functional
[19] = molecular target: T6, G-protein coupled receptor 35; assay: SAR analysis of Antagonists of the GPR35 Receptor using an Image-Based Assay - Set 6. [Related pubchem assays (depositor defined):AID2013, AID2026]; assay type: functional
[20] = molecular target: Voltage-dependent T-type calcium channel subunit alpha-1H (Homo sapiens, UniProt O95180); assay: Cav3.2 T-type channel inhibitors, synthesized analogs, SAR follow-up, cell-based, synthetic library set 2, HEK293 HH8, Fluo-4 (AID 493023); assay type: functional
[21] = A small molecule screen for inhibitors of the PhoP region in Salmonella typhi (5) using purified and synthesized compounds. [Related pubchem assays (depositor defined):AID1850, AID1864, AID1985, AID2252, AID2384, AID2612, AID2811, AID434995]; assay type: functional
[22] = inhibitors of SNCA 5'UTR-driven reporter translation, confirmation, H4 neuroglioma cells, luminescence (AID 1988); assay type: functional, cell-based
[23] = molecular target: T7, Bcl-2-related protein A1 (Mus musculus, UniProt Q07440); assay type: functional;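 further: confirmatory dose–response counterscreen on Bfl-1, used to check hits from a UBC13 polyubiquitin inhibitor campaign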
T7 sequence (Q07440 whole entry): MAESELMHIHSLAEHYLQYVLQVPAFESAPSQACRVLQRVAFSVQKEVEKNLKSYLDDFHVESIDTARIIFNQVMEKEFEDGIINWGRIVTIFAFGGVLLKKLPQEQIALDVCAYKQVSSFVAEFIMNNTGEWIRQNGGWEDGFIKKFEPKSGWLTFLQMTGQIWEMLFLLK

[24] = system: Streptococcus; assay: Group A Streptococcus viability loss, dose response, counter-screen for streptokinase expression inhibitor project, luminescence, BacTiterGlo (AID 1915); assay type: functional, organism-based;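 further: potency for reduction of bacterial viability or growth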
[25] = molecular target: T8, Apoptotic protease-activating factor 1 (Homo sapiens, UniProt O14727); assay type: functional
T8 sequence (O14727 whole entry): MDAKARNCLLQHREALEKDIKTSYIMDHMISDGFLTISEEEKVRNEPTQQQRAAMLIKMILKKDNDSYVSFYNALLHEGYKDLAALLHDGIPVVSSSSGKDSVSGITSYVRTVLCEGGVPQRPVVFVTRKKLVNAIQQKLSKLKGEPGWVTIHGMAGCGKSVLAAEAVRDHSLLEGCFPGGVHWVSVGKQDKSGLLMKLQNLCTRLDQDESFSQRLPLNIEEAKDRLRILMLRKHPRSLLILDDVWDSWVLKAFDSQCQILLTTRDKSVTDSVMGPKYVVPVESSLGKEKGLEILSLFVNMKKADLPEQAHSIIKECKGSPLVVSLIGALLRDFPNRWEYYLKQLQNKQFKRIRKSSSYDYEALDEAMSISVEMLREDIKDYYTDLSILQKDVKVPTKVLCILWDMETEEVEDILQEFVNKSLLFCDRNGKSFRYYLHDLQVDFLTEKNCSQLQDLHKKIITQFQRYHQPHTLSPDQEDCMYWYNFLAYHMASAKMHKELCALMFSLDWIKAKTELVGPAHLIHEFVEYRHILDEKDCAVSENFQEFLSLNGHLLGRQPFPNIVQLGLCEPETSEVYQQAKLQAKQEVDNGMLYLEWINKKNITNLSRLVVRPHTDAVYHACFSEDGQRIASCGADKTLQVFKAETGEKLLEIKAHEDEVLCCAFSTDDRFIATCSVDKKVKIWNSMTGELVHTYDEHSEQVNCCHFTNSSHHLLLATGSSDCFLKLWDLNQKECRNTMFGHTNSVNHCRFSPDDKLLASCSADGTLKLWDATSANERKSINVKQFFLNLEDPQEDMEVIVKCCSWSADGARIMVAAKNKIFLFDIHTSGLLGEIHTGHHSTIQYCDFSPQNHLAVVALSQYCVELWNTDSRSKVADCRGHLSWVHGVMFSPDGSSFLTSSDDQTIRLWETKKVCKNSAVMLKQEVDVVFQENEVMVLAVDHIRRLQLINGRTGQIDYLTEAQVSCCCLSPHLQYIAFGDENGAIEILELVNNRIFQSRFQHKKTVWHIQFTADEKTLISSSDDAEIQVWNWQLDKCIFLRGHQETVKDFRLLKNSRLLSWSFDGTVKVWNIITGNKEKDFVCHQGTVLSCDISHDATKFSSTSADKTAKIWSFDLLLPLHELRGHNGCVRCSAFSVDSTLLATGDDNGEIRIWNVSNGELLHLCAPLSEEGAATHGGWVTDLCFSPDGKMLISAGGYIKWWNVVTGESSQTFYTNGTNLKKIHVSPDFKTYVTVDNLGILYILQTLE

[26] = Luminescence Cell-Based Dose Response HTS to Identify Inhibitors of 5'UTR Stem-Loop Driven Prion Protein mRNA Translation in H4 Neuroglioblastoma Cells. [Related pubchem assays: 1827 (Project Summary), 1813 (Primary HTS)]; assay type: functional
[27] = inhibitors of firefly luciferase expression or activity, dose response, H4 neuroglioma cells, luminescence (AID 1990); assay type: functional, cell-based
[28] = molecular target: T9, Ubiquitin-conjugating enzyme E2 N (Homo sapiens, UniProt P61088); assay type: functional
T9 sequence (P61088 whole entry): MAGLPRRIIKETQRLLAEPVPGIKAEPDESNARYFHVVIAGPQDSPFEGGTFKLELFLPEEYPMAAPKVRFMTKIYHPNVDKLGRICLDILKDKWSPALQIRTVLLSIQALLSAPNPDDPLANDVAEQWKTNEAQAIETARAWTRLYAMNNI

[29] = system: Streptococcus sp. 'group A'; assay: growth inhibition of control SK(-) GAS strain, dose response, counter-screen for streptokinase expression inhibitor project, luminescence, kanamycin, BacTiterGlo, confirmation (AID 1900); assay type: functional, organism-based
[30] = molecular target: T9, Ubiquitin-conjugating enzyme E2 N; assay type: functional; remark: listed apart in the source
[31] = molecular target: Nonstructural protein 1 (Influenza A virus, UniProt Q194T2); assay type: functional, Influenza A virus (A/California/07/2009(H1N1))
Nonstructural protein 1, sequence (Q194T2 whole entry): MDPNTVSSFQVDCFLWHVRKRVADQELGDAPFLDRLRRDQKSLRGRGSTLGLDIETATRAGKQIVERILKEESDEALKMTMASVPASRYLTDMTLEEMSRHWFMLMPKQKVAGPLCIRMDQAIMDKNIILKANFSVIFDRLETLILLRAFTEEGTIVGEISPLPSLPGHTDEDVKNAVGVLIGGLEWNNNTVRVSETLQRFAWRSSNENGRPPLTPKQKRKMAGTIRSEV

T1 sequence (Q01196 whole entry, the tested form may be a part): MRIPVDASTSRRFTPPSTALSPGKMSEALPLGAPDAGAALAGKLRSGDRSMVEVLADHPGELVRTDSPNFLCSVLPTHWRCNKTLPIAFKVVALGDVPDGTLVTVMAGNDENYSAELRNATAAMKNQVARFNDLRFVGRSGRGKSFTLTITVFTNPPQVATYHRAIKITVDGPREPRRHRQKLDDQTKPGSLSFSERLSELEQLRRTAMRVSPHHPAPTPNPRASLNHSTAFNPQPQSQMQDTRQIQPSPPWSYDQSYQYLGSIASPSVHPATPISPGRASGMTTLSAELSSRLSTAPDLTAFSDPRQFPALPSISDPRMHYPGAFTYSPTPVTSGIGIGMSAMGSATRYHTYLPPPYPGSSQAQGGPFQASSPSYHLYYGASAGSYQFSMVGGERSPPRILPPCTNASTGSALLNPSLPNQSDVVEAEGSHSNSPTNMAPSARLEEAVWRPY
T1 sequence (Q13951 whole entry, the tested form may be a part): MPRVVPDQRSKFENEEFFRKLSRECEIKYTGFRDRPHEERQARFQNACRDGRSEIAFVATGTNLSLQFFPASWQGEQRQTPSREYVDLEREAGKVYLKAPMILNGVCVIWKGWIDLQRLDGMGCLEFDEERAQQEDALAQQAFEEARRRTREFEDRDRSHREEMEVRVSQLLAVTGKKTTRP
T4 sequence (P21554 whole entry): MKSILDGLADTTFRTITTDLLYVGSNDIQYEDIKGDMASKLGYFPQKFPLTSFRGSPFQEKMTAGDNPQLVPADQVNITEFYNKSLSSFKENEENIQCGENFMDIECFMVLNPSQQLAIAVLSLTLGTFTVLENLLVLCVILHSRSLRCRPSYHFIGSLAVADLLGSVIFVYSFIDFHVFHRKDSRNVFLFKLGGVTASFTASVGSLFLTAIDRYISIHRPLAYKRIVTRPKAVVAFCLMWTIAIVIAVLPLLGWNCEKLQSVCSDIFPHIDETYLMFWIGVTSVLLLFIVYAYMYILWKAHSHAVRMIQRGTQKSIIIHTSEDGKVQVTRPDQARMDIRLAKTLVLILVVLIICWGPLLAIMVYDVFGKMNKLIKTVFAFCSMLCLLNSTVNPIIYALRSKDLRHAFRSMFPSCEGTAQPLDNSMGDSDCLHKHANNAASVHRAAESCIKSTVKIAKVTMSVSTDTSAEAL
T2 sequence (P11940 whole entry): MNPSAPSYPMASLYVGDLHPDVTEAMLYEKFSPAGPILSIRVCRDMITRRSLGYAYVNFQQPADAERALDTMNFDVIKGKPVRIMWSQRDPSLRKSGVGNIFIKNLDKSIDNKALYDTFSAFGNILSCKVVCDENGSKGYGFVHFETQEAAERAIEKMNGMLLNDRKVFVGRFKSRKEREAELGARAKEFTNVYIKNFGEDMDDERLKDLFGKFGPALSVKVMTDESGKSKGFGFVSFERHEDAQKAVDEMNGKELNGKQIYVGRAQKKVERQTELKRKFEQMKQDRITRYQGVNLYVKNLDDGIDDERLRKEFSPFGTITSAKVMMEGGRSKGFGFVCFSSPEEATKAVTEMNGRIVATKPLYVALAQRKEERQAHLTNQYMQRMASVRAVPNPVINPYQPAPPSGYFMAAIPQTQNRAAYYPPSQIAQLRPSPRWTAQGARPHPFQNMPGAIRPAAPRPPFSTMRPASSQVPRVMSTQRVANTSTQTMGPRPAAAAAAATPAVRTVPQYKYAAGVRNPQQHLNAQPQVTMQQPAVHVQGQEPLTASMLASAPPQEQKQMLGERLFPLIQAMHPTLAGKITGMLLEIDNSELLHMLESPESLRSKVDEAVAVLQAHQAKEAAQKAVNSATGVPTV
T6 sequence (Q9HC97 whole entry): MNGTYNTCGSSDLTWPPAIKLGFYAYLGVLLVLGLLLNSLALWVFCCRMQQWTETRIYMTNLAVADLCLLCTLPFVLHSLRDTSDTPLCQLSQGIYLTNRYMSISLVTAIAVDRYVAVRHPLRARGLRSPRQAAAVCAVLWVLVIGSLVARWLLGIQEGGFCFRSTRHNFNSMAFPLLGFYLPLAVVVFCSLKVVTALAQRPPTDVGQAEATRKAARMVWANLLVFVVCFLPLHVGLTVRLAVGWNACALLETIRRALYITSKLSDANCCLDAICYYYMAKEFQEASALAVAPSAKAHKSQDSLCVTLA
T5 sequence (P34972 whole entry): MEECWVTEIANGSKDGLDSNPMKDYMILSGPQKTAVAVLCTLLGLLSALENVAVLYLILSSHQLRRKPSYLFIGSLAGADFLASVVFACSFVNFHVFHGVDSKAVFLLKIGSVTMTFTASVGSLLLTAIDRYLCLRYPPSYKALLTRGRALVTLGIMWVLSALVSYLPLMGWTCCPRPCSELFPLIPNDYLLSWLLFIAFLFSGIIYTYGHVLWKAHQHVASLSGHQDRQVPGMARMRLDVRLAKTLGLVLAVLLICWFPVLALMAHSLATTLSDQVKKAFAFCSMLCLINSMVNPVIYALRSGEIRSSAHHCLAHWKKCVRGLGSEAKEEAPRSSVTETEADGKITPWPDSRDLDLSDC
Aspartyl aminopeptidase, sequence (Q8I2J3 whole entry): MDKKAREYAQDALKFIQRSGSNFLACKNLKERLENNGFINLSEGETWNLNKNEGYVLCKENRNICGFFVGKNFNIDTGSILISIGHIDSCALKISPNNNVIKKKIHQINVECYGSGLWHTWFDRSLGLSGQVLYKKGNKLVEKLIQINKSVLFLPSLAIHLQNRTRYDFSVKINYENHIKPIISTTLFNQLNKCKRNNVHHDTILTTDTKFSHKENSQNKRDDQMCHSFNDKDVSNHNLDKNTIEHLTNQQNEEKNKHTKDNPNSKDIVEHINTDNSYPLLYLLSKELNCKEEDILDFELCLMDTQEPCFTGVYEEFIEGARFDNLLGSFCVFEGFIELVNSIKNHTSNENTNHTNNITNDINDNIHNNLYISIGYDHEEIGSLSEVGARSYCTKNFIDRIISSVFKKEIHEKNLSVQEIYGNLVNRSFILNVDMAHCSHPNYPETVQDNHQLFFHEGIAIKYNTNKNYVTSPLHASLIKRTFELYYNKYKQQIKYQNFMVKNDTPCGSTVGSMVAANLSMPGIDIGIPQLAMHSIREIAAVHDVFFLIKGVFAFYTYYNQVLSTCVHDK
Induced myeloid leukemia cell differentiation protein Mcl-1, sequence (Q07820 whole entry): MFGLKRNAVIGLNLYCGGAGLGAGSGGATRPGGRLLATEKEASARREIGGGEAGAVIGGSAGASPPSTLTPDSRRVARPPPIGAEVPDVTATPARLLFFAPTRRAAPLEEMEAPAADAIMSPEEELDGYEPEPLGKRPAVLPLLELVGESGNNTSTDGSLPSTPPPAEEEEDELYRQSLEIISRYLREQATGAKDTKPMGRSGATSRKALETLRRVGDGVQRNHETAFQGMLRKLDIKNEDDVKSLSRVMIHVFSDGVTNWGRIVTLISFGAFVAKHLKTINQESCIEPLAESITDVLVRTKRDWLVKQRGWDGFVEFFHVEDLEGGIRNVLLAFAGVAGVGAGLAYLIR
G-protein coupled receptor 55, sequence (Q9Y2T6 whole entry): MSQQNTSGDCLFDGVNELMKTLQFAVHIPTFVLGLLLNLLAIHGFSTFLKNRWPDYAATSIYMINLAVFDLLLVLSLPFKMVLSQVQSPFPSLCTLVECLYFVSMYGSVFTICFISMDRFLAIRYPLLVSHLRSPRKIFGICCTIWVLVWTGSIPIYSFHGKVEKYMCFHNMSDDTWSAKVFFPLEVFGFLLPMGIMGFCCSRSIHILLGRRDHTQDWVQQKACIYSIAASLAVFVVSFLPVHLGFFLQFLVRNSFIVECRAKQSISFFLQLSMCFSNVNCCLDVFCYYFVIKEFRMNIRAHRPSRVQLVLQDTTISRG
Procathepsin L, sequence (P07711 whole entry, the tested form may be a part): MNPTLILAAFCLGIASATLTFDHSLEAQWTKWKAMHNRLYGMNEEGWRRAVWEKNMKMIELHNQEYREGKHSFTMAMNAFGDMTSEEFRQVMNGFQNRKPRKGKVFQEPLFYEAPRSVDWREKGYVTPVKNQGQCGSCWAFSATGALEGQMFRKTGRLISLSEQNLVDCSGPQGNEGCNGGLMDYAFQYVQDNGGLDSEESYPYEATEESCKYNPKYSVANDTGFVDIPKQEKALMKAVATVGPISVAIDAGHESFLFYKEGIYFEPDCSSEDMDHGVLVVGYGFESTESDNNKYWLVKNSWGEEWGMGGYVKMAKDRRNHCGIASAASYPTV
Glucose-6-phosphate 1-dehydrogenase, sequence (P11413 whole entry): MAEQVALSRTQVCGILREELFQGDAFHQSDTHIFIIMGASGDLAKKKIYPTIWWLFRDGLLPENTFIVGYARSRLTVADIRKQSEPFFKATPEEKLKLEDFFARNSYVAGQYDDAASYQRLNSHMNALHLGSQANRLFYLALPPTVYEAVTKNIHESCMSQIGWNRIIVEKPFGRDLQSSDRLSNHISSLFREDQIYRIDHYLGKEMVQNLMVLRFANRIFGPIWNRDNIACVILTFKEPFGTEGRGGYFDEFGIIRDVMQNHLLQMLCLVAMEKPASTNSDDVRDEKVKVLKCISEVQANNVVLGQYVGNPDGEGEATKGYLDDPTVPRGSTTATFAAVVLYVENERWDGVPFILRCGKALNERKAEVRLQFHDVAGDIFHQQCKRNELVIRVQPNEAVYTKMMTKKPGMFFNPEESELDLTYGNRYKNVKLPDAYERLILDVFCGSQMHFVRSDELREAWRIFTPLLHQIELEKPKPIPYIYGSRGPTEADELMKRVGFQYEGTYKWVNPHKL

Structure (SMILES): CN1CCc2cccc3c2[C@@H]1Cc1ccc(O)c(O)c1-3
- IC50 [1]: > 64 µM (inactive)
- IC50 [2]: 7.12 µM (active)
- CC50 [3]: 15 µM (active)
- IC50 [4]: < 0.4 µM (active)
- IC50 [5]: > 66 µM (inactive)
- IC50 [6]: 3.1 µM (active)
- IC50 [7]: 38.4 µM (inactive)
- IC50 [8]: > 59.6 µM (not active)
- IC50 [9]: 17.8 µM (active)
- IC50 [10]: 8.48 µM (active)
- IC50 [11]: > 66 µM (inactive)
- IC50 [12]: 24.9 µM (active)

Structure (SMILES): Cc1ccc2nc(-c3ccccn3)cc(C(=O)Nc3ccc(S(=O)(=O)N4CCOCC4)cc3)c2c1
- IC50 [13]: 5.37 µM (active)
- EC50 [14]: > 32 µM (inactive)
- IC50 [15]: > 32 µM (inactive)
- EC50 [16]: > 32 µM (inactive)
- IC50 [17]: > 32 µM (inactive)
- EC50 [18]: > 32 µM (inactive)
- IC50 [19]: > 32 µM (inactive)

Structure (SMILES): O=C(NC[C@@H]1[C@H]2CN(Cc3ccccc3)C[C@@H]12)c1cc(Cl)cc(Cl)c1
- EC50 [20]: 1.5 µM (active)

Structure (SMILES): O=C1C2=C(Nc3ccccc3SC2c2cccnc2)c2ccccc21 (stereo unspecified)
- IC50 [21]: > 150 µM (active)

Structure (SMILES): N=C(N)N/N=C/c1ccc(OCc2ccccc2)c(OCc2ccccc2)c1
- EC50 [22]: 19.9 µM (active)
- IC50 [23]: 16 µM (active)
- EC50 [24]: 8.86 µM (active)
- IC50 [25]: > 100 µM (inactive)
- EC50 [26]: > 120 µM (not active)
- EC50 [27]: 8.78 µM (active)
- IC50 [28]: 5.05 µM (active)
- EC50 [29]: 5.75 µM (active)
- IC50 [30]: 6.15 µM (active)
- IC50 [31]: 49 µM (active)
